Article PMC12316891, “A bottom-up approach to find lead compounds in expansive chemical spaces” (Communications Chemistry, 2025)

Legend:
BRD4 (BD1) [1] = molecular target: T1, BRD4 (BD1) (Homo sapiens, UniProt O60885); assay: Differential scanning fluorimetry (DSF) single-dose thermal shift screening; assay type: binding; settings: DSF, compound 10 µM, BRD4 (BD1) 2 µM, n = 3, decimal comma; read-out: ΔTm ºC at [10 µM]
T1 construct: A pET28 plasmid containing residues 44–168 of BRD4 (BD1), a 6xHis tag, a TEV protease cleavage site; 6xHis (N, cleaved yes); made in house; host or cells: E. coli Rosetta (D3)

His6-BRD4 (BD1) = molecular target: T2, His6-BRD4 (BD1) (Homo sapiens, UniProt O60885); assay: Surface plasmon resonance (SPR) single-dose screening; assay type: binding; set-up: key to SPR RESULT: Positive: compounds were considered as SPR hits also when their average signal was further than two standard deviations apart from the average signal of the blank samples (1% DMSO); settings: for RUs at [10 µM]: SPR, compound 10 µM, 1% DMSO, n = 2, decimal comma; for SPR RESULT: single dose 10 µM, n = 2
T2 construct: A pET28 plasmid containing residues 44–168 of BRD4 (BD1), a 6xHis tag, a TEV protease cleavage site; made in house; host or cells: E. coli Rosetta (D3)

BRD4 (BD1) [2] = molecular target: T1, BRD4 (BD1); assay: Competitive HTRF TR-FRET binding assay (displacement of acetylated histone H4 peptide); settings: for IC50 / TR-FRET IC50 (nM): 16-point titration 0.1 nM to 10 µM, n = 2, Negative = curve could not be fitted to a sigmoidal curve; for IC50: read-out: TR-FRET IC50; for IC50 by HTRF TR-FRET, range in words: potency range or dose-response behaviour
Description: To further quantitatively characterize the DSF/SPR hits compounds obtained in the single-dose screenings, we selected HTRF TR-FRET. Specifically, we employed a competitive HTRF TR-FRET experiment to measure the compound’s capacity to displace an acetylated peptide from the binding site of BRD4 (BD1). For each molecule, a 16-point concentration curve was titrated against the peptide-BRD (BD1) complex and incubated for 1.5 h. A compound was considered a positive binder if we could fit its titration curve to a sigmoidal curve to determine its IC50. […] Compound screening was carried out in 384-well, white, round-bottom, small-volume plates (CORNING) in a final volume of 20 µL of 50 mM HEPES (pH 7.4), 50 mM NaCl, 400 mM KF, 0.5 mM CHAPS, and 0.05% BSA. […] Then, the labeled anti-His6-XL665 antibody (CisBio) (10 nM) was added to the mixture and incubated for 15 min, before the Eu3+ cryptate-conjugated streptavidin (2 nM) (CisBio) was added and incubated for 15 min. All incubations were performed at room temperature. […] Titration of (+)−JQ1 was used as a positive control for each experiment.

ΔTm at 10 µM (BRD4 (BD1) [1]) [°C] | RUs at [10 µM] (His6-BRD4 (BD1)) | SPR RESULT (His6-BRD4 (BD1)) | IC50 (BRD4 (BD1) [2]) [nM] | IC50 by HTRF TR-FRET, range in words (BRD4 (BD1) [2]) | TR-FRET IC50 (nM) (BRD4 (BD1) [2]) | SMILES
0.83 | 20,41 ± 1,87 RUs | Positive | 136 |  |  | COc1cccnc1C(=O)N1CCC2(CC(NC(=O)c3occc3Br)c3ccccc3O2)C1 (centres unmarked) [Compound 66, COC=1C=CC=NC1C(=O)N2CCC3(C2)CC(NC(=O)C=4OC=CC4Br)C=5C=CC=CC5O3]
0.81 | 28,42 ± 2,09 RUs | Positive | 3.72 | low nM |  | Cc1cc(C)n2c(CNc3ccc(C)c(NC(=O)CN4CCCCC4)c3)cnc2n1 [Compound 67, CC=1C=C(C)N2C(CNC=3C=CC(C)=C(NC(=O)CN4CCCCC4)C3)=CN=C2N1]
0.61 | 23,49 ± 1,0 RUs | Positive |  |  | Negative | CC(=O)c1ccc(N2CCN(C(=O)Nc3nnc(C)s3)CC2)c(F)c1 [Compound 69, CC(=O)C=1C=CC(N2CCN(CC2)C(=O)NC3=NN=C(C)S3)=C(F)C1]
0.65 | 21,72 ± 4,06 RUs | Positive | 123 |  |  | COc1ccc(C=C(CC(=O)Nc2nnc(C)s2)c2nc3ccccc3s2)cc1OC [Compound 70, COC=1C=CC(C=C(CC(=O)NC2=NN=C(C)S2)C3=NC=4C=CC=CC4S3)=CC1OC]
0.79 | 11,01 ± 0,31 RUs | Positive | 71.4 |  |  | Cc1cc(C)n2nc(NC(=O)NCCOC3(C)CCOCC3)nc2n1 [Compound 71, CC=1C=C(C)N2N=C(NC(=O)NCCOC3(C)CCOCC3)N=C2N1]
0.51 | 19,09 ± 5,61 RUs | Positive | 92.9 |  |  | Cc1ncc(CNC(=O)NCc2cccc(S(=O)(=O)NC(C)C)c2)c(O)n1 [Compound 72, CC(C)NS(=O)(=O)C=1C=CC=C(CNC(=O)NCC=2C=NC(C)=NC2O)C1]
0.4 | 52,94 ± 6,92 RUs | Positive | 1370 |  |  | Cc1cc(C)n2nc(NC(=O)N3CCC(CCC(C)(C)C)C3)nc2n1 (centres unmarked) [Compound 74, CC=1C=C(C)N2N=C(NC(=O)N3CCC(CCC(C)(C)C)C3)N=C2N1]
1.2 | 14,74 ± 1,95 RUs | Positive |  |  | Negative | Cc1ncc(CNC(=O)c2c(-c3ccccc3)nn3ccccc23)c(O)n1 [Compound 75, CC=1N=CC(CNC(=O)C=2C(=NN3C=CC=CC23)C=4C=CC=CC4)=C(O)N1]
0.48 | 67,27 ± 12,19 RUs | Positive | 135 |  |  | Cc1cc(C)n2nc(NC(=O)N3CCc4cc(Cl)cc(Cl)c4C3)nc2n1 [Compound 77, CC=1C=C(C)N2N=C(NC(=O)N3CCC=4C=C(Cl)C=C(Cl)C4C3)N=C2N1]
1.53 | 9,01 ± 0,76 RUs | Positive | 170 |  |  | Cc1cc(C(=O)NCCc2nc3cc(Cl)ccc3[nH]2)n2ncnc2n1 [Compound 78, CC=1C=C(C(=O)NCCC2=NC=3C=C(Cl)C=CC3N2)N4N=CN=C4N1]
-0.49 | 29,64 ± 5,36 RUs | Positive | 23.6 |  |  | Cc1nnc(NC(=O)CNC(c2ccc(Cl)cc2)c2ccccc2C(C)C)s1 (centres unmarked) [Compound 80, CC(C)C=1C=CC=CC1C(NCC(=O)NC2=NN=C(C)S2)C=3C=CC(Cl)=CC3]
-0.24 | 38,3 ± 6,87 RUs | Positive | 29.7 |  |  | CCOc1ccc(-c2cn(C3CC(NC(=O)c4cc(C)nc5ncnn45)C3)nn2)cc1F (centres unmarked) [Compound 82, CCOC=1C=CC(=CC1F)C2=CN(N=N2)C3CC(C3)NC(=O)C4=CC(C)=NC5=NC=NN45]
1.16 | 17,5 ± 1,9 RUs | Positive | 18.1 |  |  | O=C(Nc1cccc(C(=O)N2CCC(Cn3cc(C4(O)CCOCC4)nn3)CC2)c1)c1ccco1 [Compound 84, OC1(CCOCC1)C2=CN(CC3CCN(CC3)C(=O)C=4C=CC=C(NC(=O)C5=CC=CO5)C4)N=N2]
0.94 | 56,94 ± 25,46 RUs | Negative |  |  | Negative | CN(Cc1cccc(OC(F)F)c1)C(=O)C(=O)NC1CCN(C(=O)c2ccco2)c2ccccc21 (centres unmarked) [Compound 86, CN(CC=1C=CC=C(OC(F)F)C1)C(=O)C(=O)NC2CCN(C(=O)C3=CC=CO3)C=4C=CC=CC24]
2.3 | 15,1 ± 2,46 RUs | Positive | 11.1 | low nM |  | COC(=O)c1cc(CNC(=O)C=Cc2cnc(C)[nH]c2=O)ccc1Cl [Compound 87, COC(=O)C=1C=C(CNC(=O)C=CC2=CN=C(C)NC2=O)C=CC1Cl]
0.43 | 11,06 ± 3,73 RUs | Negative | 213 |  |  | Cc1nonc1CC(=O)N1CC(CC(C)NC(=O)c2nsnc2O)C1 (centres unmarked) [Compound 90, CC(CC1CN(C1)C(=O)CC2=NON=C2C)NC(=O)C3=NSN=C3O]
0.44 | 8,08 ± 2,94 RUs | Negative | 579 |  |  | Cc1cn2cc(C(=O)NC(C)CC(C)NC(=O)c3ccsn3)sc2n1 (centres unmarked) [Compound 91, CC(CC(C)NC(=O)C1=CN2C=C(C)N=C2S1)NC(=O)C=3C=CSN3]
1.04 | 8,96 ± 1,15 RUs | Negative | 622 |  |  | COC(=O)C1(NCC(=O)Nc2nnc(C)s2)CC(C)(C)OC(C)(C)C1 [Compound 92, COC(=O)C1(CC(C)(C)OC(C)(C)C1)NCC(=O)NC2=NN=C(C)S2]
-0.58 | 20,44 ± 23,06 RUs | Negative | 470 |  |  | Cc1cc(C)n2nc(CNC(=NCCCN3CCOCC3)N3CCC(NC(=O)CBr)C3)nc2n1 (centres unmarked) [Compound 93, BrCC(=O)NC1CCN(C1)C(=NCCCN2CCOCC2)NCC=3N=C4N=C(C)C=C(C)N4N3]

SMILES | ΔTm at 10 µM (BRD4 (BD1) [1]) [°C] | RUs at [10 µM] (His6-BRD4 (BD1)) | SPR RESULT (His6-BRD4 (BD1)) | IC50 (BRD4 (BD1) [2]) [nM] | IC50 by HTRF TR-FRET, range in words (BRD4 (BD1) [2]) | TR-FRET IC50 (nM) (BRD4 (BD1) [2])
Cc1nnc(NC(=O)NCc2cccc(C(=O)NCC3CCCO3)c2)s1 (centres unmarked) [Compound 73, CC1=NN=C(NC(=O)NCC=2C=CC=C(C2)C(=O)NCC3CCCO3)S1] | 1.13 | 23,59 ± 6,69 RUs | Positive | 10700 |  | 
Cc1nnc(NC(=O)CCC(=O)N2Cc3ccccc3OC3(CCOC3)C2)s1 (centres unmarked) [Compound 76, CC1=NN=C(NC(=O)CCC(=O)N2CC=3C=CC=CC3OC4(CCOC4)C2)S1] | 2.11 | 25 ± 11,77 RUs | Negative | 405 |  | 
Cc1nnc(NC(=O)C2CCCN(C(=O)c3ccc(Br)c(F)c3)C2)s1 (centres unmarked) [Compound 79, CC1=NN=C(NC(=O)C2CCCN(C2)C(=O)C=3C=CC(Br)=C(F)C3)S1] | 1.21 | 33,58 ± 5,55 RUs | Positive |  |  | Negative
Cc1nc(=O)c(CCC(=O)NC2CC(O)(Cn3cc(-c4cnn(C)c4C)nn3)C2)c[nH]1 (centres unmarked) [Compound 81, CC1=C(C=NN1C)C2=CN(CC3(O)CC(C3)NC(=O)CCC4=CNC(C)=NC4=O)N=N2] | -0.15 | 11,5 ± 1,85 RUs | Positive | 26.4 |  | 
Cc1ncc(C(=O)NCCn2cc(Cn3c(C)nc4ccccc43)nn2)c(=O)[nH]1 [Compound 83, CC1=NC=2C=CC=CC2N1CC3=CN(CCNC(=O)C4=CN=C(C)NC4=O)N=N3] | 0.78 | 14,05 ± 12,27 RUs | Negative | 325 |  | 
Cc1nc(=O)c(CCC(=O)N2CC3(CCCC3)c3ccccc32)c[nH]1 [Compound 85, CC1=NC(=O)C(CCC(=O)N2CC3(CCCC3)C=4C=CC=CC24)=CN1] | 1.18 | 24,26 ± 6,71 RUs | Positive | 18 |  | 
Cc1nnc(NC(=O)CNC(c2ccc(F)cc2)c2cnn(C)c2)s1 (centres unmarked) [Compound 88, CC1=NN=C(NC(=O)CNC(C=2C=NN(C)C2)C=3C=CC(F)=CC3)S1] | 0.54 | 4,11 ± 7,31 RUs | Negative | 2260 |  | 
CC(NC(=O)CC1(C)CCCO1)C1(O)CN(C(=O)c2nsnc2O)C1 (centres unmarked) [Compound 89, CC(NC(=O)CC1(C)CCCO1)C2(O)CN(C2)C(=O)C3=NSN=C3O] | 0.19 | -1,39 ± 0,54 RUs | Negative | 155 |  | 
Cc1ccc(-n2c(C)nnc2SCC(=O)N2CCOCCC23COC3)cc1 [Compound 94, CC1=NN=C(SCC(=O)N2CCOCCC32COC3)N1C=4C=CC(C)=CC4] | 1.19 | 3,87 ± 1,96 RUs | Negative | 27.9 | low nM | 
CCn1nnc2cc(C(=O)N3C[C@@H](OC(C)=O)[C@@H](n4cc(CN5CCC(O)CC5)nn4)C3)ccc21 [Compound 95, CCN1N=NC=2C=C(C=CC12)C(=O)N3C[C@@H](OC(=O)C)[C@H](C3)N4C=C(CN5CCC(O)CC5)N=N4] | 0.19 | 14,42 ± 2,9 RUs | Positive |  |  | Negative
